Experimental data: patent publication US5084453A, “1-carboxy-1-vinyloxyimino aminothiazole cephalosporin derivatives” (priority 1988, dated 1992)
Values after ≈ are worked out from the molar mass of the structure shown. Where two headings read alike, the source gives them in different places.

How the values were obtained:
Assay in all cases: in vitro antibacterial activity, agar plate dilution method
Format in all cases: cell-based
[1] = system: A. calcoaceticus No. 4
Description: (§1) Now, the in vitro antibacterial activities of the compounds of the present invention against various microorganisms, were measured by the following agar plate dilution method.
(§2) One platinum loopfull of each test microorganism incubated overnight in Mueller Hinton broth, was inoculated to Mueller Hinton agar (MH agaer). Such culture media containing various antibiotics in various concentrations were prepared. After incubation at 37° C. for 16 hours, the minimum inhibitory concentrations (MIC μg/ml) were measured.

[2] = system: E. cloacae 963
Description: as §1, §2

[3] = system: E. cloacae Nek 39*
Description: as §1, §2

[4] = system: E. coli CSH(RE45)*; conditions: 10^6 CFU/ml, β-Lactamase-producing strain, 37° C., 16 hours
Description: as §1, §2

[5] = system: E. coli GN5482*
Description: as §1, §2

[6] = system: E. coli NIHJ JC2; conditions: 10^6 CFU/ml, Mueller Hinton agar, 37° C., 16 hours
Description: as §1, §2

[7] = system: K. oxytoca GN10650*
Description: as §1, §2

[8] = system: K. pneumoniae No. 42*
Description: as §1, §2

[9] = system: K. pneumoniae PC1-602
Description: as §1, §2

[10] = system: M. morganii GN5407*
Description: as §1, §2

[11] = system: P. vulgaris HX-19
Description: as §1, §2

[12] = system: P. vulgaris No. 33*
Description: as §1, §2

[13] = system: Ps. aeruginosa AK 109
Description: as §1, §2

[14] = system: Ps. aeruginosa AKR17; conditions: 10^6 CFU/ml, Mueller Hinton agar, 37° C., 16 hours
Description: as §1, §2

[15] = system: Ps. aeruginosa IFO3445
Description: as §1, §2

[16] = system: Ps. cepacia 23
Description: as §1, §2

[17] = system: S. aureus 209P NIHJ-JC1
Description: as §1, §2

[18] = system: S. marcescens IAM 1184
Description: as §1, §2

[19] = system: S. marcescens No. 16-2*
Description: as §1, §2

[20] = system: E. coli CSH2(RK1)*; conditions: Escherichia coli, 16 h
Description: as §1, §2

[21] = 10^6 CFU/ml, Mueller Hinton agar, 37° C., 16 hours
[22] = 10^6 CFU/ml, β-Lactamase-producing strain, 37° C., 16 hours
[23] = Acinetobacter calcoaceticus, NO.4, 10^6 CFU/ml, Mueller Hinton agar, 37° C., 16 hours, read-out: MIC
[24] = Enterobacter cloacae, 963, 16 h
[25] = Escherichia coli, read-out: MIC
[26] = Escherichia coli, NIHJJC2, read-out: MIC
[27] = Klebsiella oxytoca, GN10650, 16 h
[28] = Klebsiella pneumoniae, PC1602, 10^6 CFU/ml, Mueller Hinton agar, 37° C., 16 hours, read-out: MIC
[29] = Morganella morganii, GN5407, 16 h
[30] = Pseudomonas aeruginosa, AKR17, read-out: MIC
[31] = Serratia marcescens, IAM1184, 16 h
[32] = Pseudomonas aeruginosa, AK109, 16 h
[33] = Pseudomonas aeruginosa, IFO3445, 16 h

Row | Structure (SMILES) | MIC [1, 23] | MIC [2, 24] | MIC ([3]; Enterobacter cloacae, 16 h) | MIC [4, 25] | MIC [20] | MIC ([5]; Escherichia coli, GN5482, 16 h) | MIC [6, 26] | MIC [7, 27] | MIC ([8]; Klebsiella pneumoniae, 16 h) | MIC [9, 28] | MIC [10, 29] | MIC ([12]; Proteus vulgaris, 16 h) | MIC [14, 30] | MIC ([16]; Burkholderia cepacia, 23, 16 h) | MIC ([17]; Staphylococcus aureus, 16 h) | MIC [18, 31] | MIC ([19]; Serratia marcescens, 16 h) | MIC ([11]; Proteus vulgaris, HX19, 16 h) | MIC [13, 32] | MIC [15, 33] | other results
1 | C=C(ON=C(C(=O)N[C@@H]1C(=O)N2C(C(=O)[O-])=C(C[n+]3ccccc3)CS[C@H]12)c1csc(N)n1)C(=O)O (single isomer, unassigned) [Example 1, 7β-[2-(2-aminothiazol-4-yl)-2-(1-carboxy-1-vinyloxyimino)acetamido]-3-(1-pyridinio)methyl-3-cephem-4-carboxylate (syn-isomer)] | – | – | – | – | – | – | – | – | – | – | – | – | – | – | – | – | – | – | – | – | MIC [1, 21]: 12.5 µg/mL (≈ 23.6 µM); MIC [2, 21]: 0.025 µg/mL (≈ 0.0471 µM); MIC [3, 22]: 0.39 µg/mL (≈ 0.735 µM); MIC [4]: 0.025 µg/mL (≈ 0.0471 µM); MIC [5, 22]: 0.2 µg/mL (≈ 0.377 µM); MIC [6]: 0.025 µg/mL (≈ 0.0471 µM); MIC [7, 22]: 0.1 µg/mL (≈ 0.188 µM); MIC [8, 22]: 0.1 µg/mL (≈ 0.188 µM); MIC [9, 21]: < 0.006 µg/mL; MIC [10, 22]: 0.0125 µg/mL (≈ 0.0236 µM); MIC [11, 21]: 0.0125 µg/mL (≈ 0.0236 µM); MIC [12, 22]: 0.0125 µg/mL (≈ 0.0236 µM); MIC [13, 21]: 1.56 µg/mL (≈ 2.94 µM); MIC [14]: > 100 µg/mL; MIC [15, 21]: 0.78 µg/mL (≈ 1.47 µM); MIC [16, 21]: 3.12 µg/mL (≈ 5.88 µM); MIC [17, 21]: 3.12 µg/mL (≈ 5.88 µM); MIC [18, 21]: < 0.006 µg/mL; MIC [19, 22]: 0.78 µg/mL (≈ 1.47 µM)
2 | CO/N=C(\C(=O)N[C@@H]1C(=O)N2C(C(=O)O)=C(COC(C)=O)CS[C@H]12)c1csc(N)n1 [Cefotaxime, reference compound] | 25 µg/mL (≈ 54.9 µM) | 0.05 µg/mL (≈ 0.11 µM) | 1.56 µg/mL (≈ 3.43 µM) | 0.1 µg/mL (≈ 0.22 µM) | 0.0125 µg/mL (≈ 0.0274 µM) | 0.39 µg/mL (≈ 0.856 µM) | 0.05 µg/mL (≈ 0.11 µM) | 0.39 µg/mL (≈ 0.856 µM) | 0.05 µg/mL (≈ 0.11 µM) | < 0.006 µg/mL | 0.05 µg/mL (≈ 0.11 µM) | 0.025 µg/mL (≈ 0.0549 µM) | > 100 µg/mL | 6.25 µg/mL (≈ 13.7 µM) | 1.56 µg/mL (≈ 3.43 µM) | 0.0125 µg/mL (≈ 0.0274 µM) | 6.25 µg/mL (≈ 13.7 µM) | – | – | – | MIC ([11]; Proteus vulgaris, HX19, 10^6 CFU/ml, Mueller Hinton agar, 37° C., 16 hours, read-out: MIC): < 0.006 µg/mL; MIC ([13]; Pseudomonas aeruginosa, AK109, 10^6 CFU/ml, Mueller Hinton agar, 37° C., 16 hours, read-out: MIC): 12.5 µg/mL (≈ 27.4 µM); MIC ([15]; Pseudomonas aeruginosa, IFO3445, 10^6 CFU/ml, Mueller Hinton agar, 37° C., 16 hours, read-out: MIC): 25 µg/mL (≈ 54.9 µM)
3 | CC(C)(O/N=C(\C(=O)N[C@@H]1C(=O)N2C(C(=O)[O-])=C(C[n+]3ccccc3)CS[C@H]12)c1csc(N)n1)C(=O)O [Ceftazidime, reference compound] | – | 0.1 µg/mL (≈ 0.183 µM) | 1.56 µg/mL (≈ 2.85 µM) | 0.2 µg/mL (≈ 0.366 µM) | 0.1 µg/mL (≈ 0.183 µM) | 1.56 µg/mL (≈ 2.85 µM) | 0.1 µg/mL (≈ 0.183 µM) | 0.1 µg/mL (≈ 0.183 µM) | 0.39 µg/mL (≈ 0.714 µM) | – | 0.1 µg/mL (≈ 0.183 µM) | 0.5 µg/mL (≈ 0.915 µM) | > 100 µg/mL | 0.78 µg/mL (≈ 1.43 µM) | 6.25 µg/mL (≈ 11.4 µM) | < 0.006 µg/mL | 1.56 µg/mL (≈ 2.85 µM) | 0.025 µg/mL (≈ 0.0457 µM) | 0.78 µg/mL (≈ 1.43 µM) | 1.56 µg/mL (≈ 2.85 µM) | MIC ([1]; Acinetobacter calcoaceticus, NO.4, 16 h): 6.25 µg/mL (≈ 11.4 µM); MIC ([9]; Klebsiella pneumoniae, PC1602, 16 h): 0.25 µg/mL (≈ 0.457 µM)
4 | C=C(O/N=C(\C(=O)N[C@@H]1C(=O)N2C(C(=O)[O-])=C(C[n+]3cccc4c3CCC4)CS[C@H]12)c1csc(N)n1)C(=O)O [Example 2, 7β-[2-(2-aminothiazol-4-yl)-2-(1-carboxy-1-vinyloxyimino)acetamido]-3-(2,3-cychlopenteno-pyridinio)methyl-3-cephem-4-carboxylate (syn-isomer)] | 3.12 µg/mL (≈ 5.47 µM) | 0.05 µg/mL (≈ 0.0876 µM) | 0.2 µg/mL (≈ 0.351 µM) | 0.78 µg/mL (≈ 1.37 µM) | 0.025 µg/mL (≈ 0.0438 µM) | 0.1 µg/mL (≈ 0.175 µM) | 0.05 µg/mL (≈ 0.0876 µM) | 0.1 µg/mL (≈ 0.175 µM) | 0.39 µg/mL (≈ 0.683 µM) | 0.0125 µg/mL (≈ 0.0219 µM) | 0.025 µg/mL (≈ 0.0438 µM) | 0.025 µg/mL (≈ 0.0438 µM) | 100 µg/mL (≈ 175 µM) | 0.39 µg/mL (≈ 0.683 µM) | 1.56 µg/mL (≈ 2.73 µM) | – | 0.78 µg/mL (≈ 1.37 µM) | 0.025 µg/mL (≈ 0.0438 µM) | 1.56 µg/mL (≈ 2.73 µM) | 1.56 µg/mL (≈ 2.73 µM) | MIC ([18]; Serratia marcescens, IAM1184, 10^6 CFU/ml, Mueller Hinton agar, 37° C., 16 hours, read-out: MIC): 0.0125 µg/mL (≈ 0.0219 µM)
